Assay results: US20260027243A1, “AMPHIPHILIC COMPOUNDS FOR ATTENUATING NEUROTOXICITY OF AMYLOID-beta OLIGOMERS AND DIAGNOSTIC METHODS” (THE BOARD OF TRUSTEES OF THE UNIVERSITY OF ILLINOIS, priority 2022, published 2026)
Read-outs that look alike come from different tables or passages of the source.

Tests used:
[1] = Log D by octanol-PBS partition; assay type: physicochemical; conditions: DCM compounds
Experimental: Log D measurements. The Log D value was measured following a published procedure using slight modifications. In general, compounds in 0.5 mL octanol was subjected to partition with 0.5 mL octanol-saturated PBS. The whole mixture was stirred vigorously for 5 min, and centrifuged at 2,000 rpm for 5 min. The top octanol layer was separated for later fluorescence measurement. The remaining PBS layer was partitioned with 0.5 mL PBS-saturated octanol, and the second top octanol layer was then separated after vigorous stirring and centrifuging at 2,000 rpm for another 5 min. The two octanol layers' fluorescence spectra were recorded. The log D value was calculated by the fluorescence intensity ratio at the compounds' emission wavelength for the above two octanol extractions.

[2] = target: T1, Aβ42 oligomers (Homo sapiens, UniProt P05067); experiment: Fluorescence saturation binding assay with Aβ42 oligomers; conditions: for Kd: read-out: Kd, Oligomers; for binding affinity to oligomers compared with fibrils (Kd comparison): amphiphilic ZY compounds
T1 construct: commercial Aβ42 monomer powder (from GL biochem); purchased GL biochem
T1 sequence (P05067 672-713 limits assumed): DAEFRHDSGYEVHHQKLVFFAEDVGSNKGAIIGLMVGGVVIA
Experimental: Aβ42 oligomers: The 0.5 mg monomeric films were dissolved in 1.1 mL PBS buffer (with final DMSO concentration less than 1%) and incubated at 4° C. overnight. The resulting solution was then centrifuged at 3000 rpm for 15 mins to remove the insoluble aggregates. The clear supernatant was then used for the following experiments. Aβ42 oligomers concentration was checked by measuring the absorbance of the supernatant at 280 nm.
(§1) In Vitro Saturation Binding Studies with Aβ42 Fibrils and Aβ42 Oligomers. To a solution of increasing concentrations of compounds, a fixed concentration of the generated aggregated Aβ42 fibrils or Aβ42 oligomers solutions (5 to 15 NM) was added to yield a total volume of 100 μL. Nonspecific binding was determined […]. The mixture was incubated for 15 min at room temperature. All fluorescence data were obtained on a SpectraMax M2e plate reader (Molecular Devices). The fluorescent intensity was measured at the corresponding emission wavelength of each compound, and the Kd binding curves were generated by GraphPad Prism 8.0 with one site-specific binding model. Equation: Y=Bmax*X/(Kd+X).

[3] = target: T2, Aβ42 fibrils (Homo sapiens, UniProt P05067); experiment: Fluorescence saturation binding assay with Aβ42 fibrils; conditions: read-out: Kd, Fibrils
T2 construct: commercial Aβ42 monomer powder (from GL biochem); purchased GL biochem
T2 sequence (P05067 672-713 limits assumed): as above
Experimental: Preparation of the Aβ42 Fibrils and Aβ42 Oligomers. Aβ42 fibrils: 1 mg of commercial Aβ42 monomer powder (from GL biochem) was dissolved in 1 mL 1,1,1,3,3,3-hexafluoro-2-propanol (HFIP) at room temperature and incubated for 1 h. The resulting solution was divided equally into two Eppendorf tubes. The solution in each Eppendorf tube containing 0.5 mg Aβ42 monomer was then evaporated overnight and dried by vacuum centrifuge to generate monomeric films. […] Aβ42 fibrils solution was prepared by dissolving the 0.5 mg monomeric films in 1.1 mL PBS buffer (with final DMSO concentration less than 1%) and stirring at 37° C. for 3 days.
as §1

[4] = tested on: mouse neuroblastoma N2a cells; experiment: Alamar blue cytotoxicity in N2a cells; assay type: cell-based; conditions: for relative cytotoxicity: comparison among compounds
Experimental: Cytotoxicity Studies. Alamar Blue assay was chosen for the cytotoxicity studies. Mouse neuroblastoma Neuro2A (N2A) cells were grown with DMEM/10% FBS in a petri dish at 37° C. in a humidified atmosphere with 5% CO2. Then N2A cells were seeded in a 96-well plate (1.0×10^4/well). After 24 h incubation, cell media was changed to DMEM/N-2, and N2A cells were incubated for another 1 h. Then the cells were treated with different concentrations of compounds for 40 h, Alamar Blue solution (10 μL) was added, and the cells were incubated for another 90 min at 37° C. The fluorescence intensity of each well was measured at 590 nm (excitation wavelength=560 nm).

[5] = target: Aβ oligomers; conditions: cited from earlier work
[6] = tested on: Cu^2+-Aβ42-induced toxicity in Neuro2A cells; experiment: Cu2+-Aβ42-induced toxicity, Alamar blue cell viability; assay type: cell-based, mouse; conditions: [Aβ42]=40 μM, [Cu^2+]=40 μM, compound 10 μM (ZY-12-OMe 5 μM)
Experimental: FIG. 6. Cell viability results upon incubation of Neuro2A cells with monomeric Aβ42 in the presence or absence of metal ions and amphiphilic compounds. Concentrations: [Aβ42]=40 μM, [Cu^2+]=40 μM, [ZY-12-MT]=[ZY-15-OMe]=[ZY-15-MT]=[ZY-17-MT]=[ZY-5-OMe]=[ZY-5-MT]=[ZY-5-DT]=10 μM, [ZY-12-OMe]=5 μM. The error bars represent the standard deviation from five independent experiments, and the statistical analysis was evaluated according to one-way ANOVA (*p<0.05).
For the Cu^2+-Ap-induced toxicity studies, cells treated were monomeric Aβ42, Cu^2+, monomeric Aβ42+Cu^2+, and monomeric Aβ42+Cu^2++ compounds, respectively. After 40 h incubation, Alamar Blue solution (10 μL) was added, and the cells were incubated for another 90 min at 37° C. The fluorescence intensity of each well was measured at 590 nm (excitation wavelength=560 nm).

Row | Kd ([2]; Table 1, amphiphilic compounds) [nM] | Kd ([3]; Table 1, amphiphilic compounds) [nM] | SMILES | binding affinity to oligomers compared with fibrils (Kd comparison) [2] | other results
1 |  |  | CN1CCN(C)CCN(Cc2cc(/C=C/C3=CC(=C(C#N)C#N)c4ccccc4O3)ccc2O)CC1 [DCM-OH-1-MT, (E)-2-(2-(3-((4,7-dimethyl-1,4,7-triazonan-1-yl)methyl)-4-hydroxystyryl)-4H-chromen-4-ylidene)malononitrile] |  | logD [1]: 1.65 ± 0.06; Kd ([2]; Table 3, DCM compounds): 670 ± 190 nM; Kd ([3]; Table 3, DCM compounds): 580 ± 70 nM
2 | 4550 ± 320 | 1270 ± 100 | CN1CCN(C)CCN(Cc2cc(/C=C/c3ccc(-c4ccc(C=O)cc4)s3)cc(CN3CCN(C)CCN(C)CC3)c2O)CC1 [ZY-15-DT, (E)-4-(5-(3,5-bis((4,7-dimethyl-1,4,7-triazonan-1-yl)methyl)-4-hydroxystyryl)thiophen-2-yl)benzaldehyde] |  | 
3 | 320 ± 40 | 390 ± 40 | COc1cc(-c2ccc(/C=C/c3ccc(N(C)C)cc3)s2)cc(CN2CCN(C)CCN(C)CC2)c1O [ZY-12-OMe, (E)-2-((4,7-dimethyl-1,4,7-triazonan-1-yl)methyl)-4-(5-(4-(dimethylamino)styryl)thiophen-2-yl)-6-methoxyphenol] | higher binding affinity to oligomers over fibrils | cell viability ([4]; at 5 μM): more than 75%; cell viability ([4]; at 10 μM): less than 50%; relative cytotoxicity [4]: higher citotoxicity than others
4 |  |  | N#CC(C#N)=C1C=C(/C=C/c2ccc(O)cc2)Oc2ccccc21 [DCM-OH-1] |  | logD [1]: 1 ± 0.04
5 |  |  | CCOc1cccc(C=Cc2cc(C)c3n2[B-](F)(F)[N+]2=C(CCC(=O)OCC(Cl)(Cl)Cl)C=CC2=C3)c1O [BD-Oligo] |  | Kd ([5]; reported oligomer-selective probes): 400 nM
6 | 6270 ± 1010 | 4190 ± 870 | CN1CCN(C)CCN(Cc2cc(-c3ccc(/C=C/c4ccc(N(C)C)cc4)s3)ccc2O)CC1 [ZY-12-MT, (E)-2-((4,7-dimethyl-1,4,7-triazonan-1-yl)methyl)-4-(5-(4-(dimethylamino)styryl)thiophen-2-yl)phenol] |  | effect on cell viability under Cu^2+-Aβ42 toxicity [6]: significantly increase cell viability
7 | 2080 ± 340 | 940 ± 70 | COc1cc(OC)cc(-c2ccc(/C=C/c3ccc(O)c(CN4CCN(C)CCN(C)CC4)c3)cc2)c1 [ZY-17-MT, (E)-4-(2-(3′,5′-dimethoxy-[1,1′-biphenyl]-4-yl)vinyl)-2-((4,7-dimethyl-1,4,7-triazonan-1-yl)methyl)phenol] |  | 
8 | 460 ± 60 | 1820 ± 130 | CN1CCN(C)CCN(Cc2cc(/C=C/c3ccc(-c4ccc(N(C)C)cc4)s3)ccc2O)CC1 [ZY-5-MT, (E)-2-((4,7-dimethyl-1,4,7-triazonan-1-yl)methyl)-4-(2-(5-(4-(dimethylamino)phenyl)thiophen-2-yl)vinyl)phenol] | higher binding affinity to oligomers over fibrils | selectivity to Aβ oligomers over Aβ fibrils ([2]; ratio of Kd values): 3.9 times
9 | 120 | 180 ± 20 | COc1cc(OC)cc(-c2ccc(/C=C/c3cc(CN4CCN(C)CCN(C)CC4)c(O)c(OC)c3)cc2)c1 [ZY-17-OMe, (E)-4-(2-(3′,5′-dimethoxy-[1,1′-biphenyl]-4-yl)vinyl)-2-((4,7-dimethyl-1,4,7-triazonan-1-yl)methyl)-6-methoxyphenol] | higher binding affinity to oligomers over fibrils | relative cytotoxicity [4]: the highest toxicity
10 | 1030 ± 200 | 2250 ± 460 | COc1cc(OC)cc(-c2ccc(/C=C/c3cc(CN4CCN(C)CCN(C)CC4)c(O)c(CN4CCN(C)CCN(C)CC4)c3)cc2)c1 [ZY-17-DT, (E)-4-(2-(3′,5′-dimethoxy-[1,1′-biphenyl]-4-yl)vinyl)-2,6-bis((4,7-dimethyl-1,4,7-triazonan-1-yl)methyl)phenol] | higher binding affinity to oligomers over fibrils | relative cytotoxicity [4]: higher citotoxicity than others
11 |  |  | CCN(CC)c1ccc(/C=C/C2=[O+][B-](F)(F)OC(/C=C/c3ccc(N(CC)CC)nc3)=C2CCCOc2c(C)cccc2C)cn1 [CRANAD-102] |  | Kd ([5]; reported values): 7.5 nM
12 | 2090 ± 360 | 1670 ± 190 | CN1CCN(C)CCN(Cc2cc(/C=C/c3ccc(-c4ccc(N(C)C)cc4)s3)cc(CN3CCN(C)CCN(C)CC3)c2O)CC1 [ZY-5-DT, (E)-2,6-bis((4,7-dimethyl-1,4,7-triazonan-1-yl)methyl)-4-(2-(5-(4-(dimethylamino)phenyl)thiophen-2-yl)vinyl)phenol] |  | 
13 | 670 ± 150 | 1380 ± 240 | CN1CCN(C)CCN(Cc2cc(-c3ccc(/C=C/c4ccc(N(C)C)cc4)s3)cc(CN3CCN(C)CCN(C)CC3)c2O)CC1 [ZY-12-DT, (E)-2,6-bis((4,7-dimethyl-1,4,7-triazonan-1-yl)methyl)-4-(5-(4-(dimethylamino)styryl)thiophen-2-yl)phenol] | higher binding affinity to oligomers over fibrils | relative cytotoxicity [4]: higher citotoxicity than others
14 | 1040 ± 150 | 680 ± 100 | COc1cc(/C=C/c2ccc(-c3ccc(N(C)C)cc3)s2)cc(CN2CCN(C)CCN(C)CC2)c1O [ZY-5-OMe, (E)-2-((4,7-dimethyl-1,4,7-triazonan-1-yl)methyl)-4-(2-(5-(4-(dimethylamino)phenyl)thiophen-2-yl)vinyl)-6-methoxyphenol] |  | effect on cell viability under Cu^2+-Aβ42 toxicity [6]: significantly increase cell viability
15 |  |  | CN1CCN(C)CCN(Cc2cc(/C=C/C3=CC(=C(C#N)C#N)c4ccccc4O3)cc(CN3CCN(C)CCN(C)CC3)c2O)CC1 [DCM-OH-1-DT, (E)-2-(2-(3,5-bis((4,7-dimethyl-1,4,7-triazonan-1-yl)methyl)-4-hydroxystyryl)-4H-chromen-4-ylidene)malononitrile] |  | logD [1]: 1.51 ± 0.018; Kd ([2]; Table 3, DCM compounds): 2880 ± 540 nM; Kd ([3]; Table 3, DCM compounds): 1850 ± 190 nM
